Results reported in patent US7589094B2, “N- (3-amino-2-hydroxy-propyl) substituted alkylamide compounds” (Elan Pharmaceuticals, Inc., priority 2001, dated 2009).

SMILES | melting point
CCCC1CCC(CC(=O)N[C@@H](Cc2cc(F)cc(F)c2)[C@H](O)CNCc2cccc(CC)c2)CC1=O (stereo partly drawn) [Compound 213, N-{(1S,2R)-1-(3,5-difluorobenzyl)-3-[(3-ethylbenzyl)amino]-2-hydroxypropyl}-2-(3-oxo-4-propylcyclohexyl)acetamide] | 52 to 54 °C
CCc1cccc(CNC[C@@H](O)[C@H](Cc2cc(F)cc(F)c2)NC(=O)CC2CCCC(=O)C2)c1 (stereo partly drawn) [Compound 214, N-{(1S,2R)-1-(3,5-difluorobenzyl)-3-[(3-ethylbenzyl)amino]-2-hydroxypropyl}-2-(3-oxocyclohexyl)acetamide] | 139.5 to 149.8 °C
